Test results from patent publication US20260209152A1, “Substituted Hydroxystilbene Compounds and Derivatives, Synthesis and Uses Thereof” (Kynan Duke IP, LLC, priority 2019, published 2026).
pIC50: −log10 of the molar value. Several values for one entry are separate records, joined by “and”; a condition that tells them apart may be missing. Identical values can stand only once. Entries after “also recorded” stand apart in the source; their conditions may differ. Like-named read-outs stand apart in the source and are kept apart here. One block for each molecule: values may come before it.

Tests used:
Kidney ACHN = test: CellTiter Glo cell viability assay; assay type: cell-based, human; details: for pIC50: Homo sapiens, ACHN
Outline: (§1)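 Cells seeded at 1.7*10^3/well in quadruplicate; compounds at 18 two-fold dilutions from 5 μM (0.000038146-5 μM), or at 1, 2, 5, 10 and 20 μM. CellTiter Glo luminescence read on days 1, 3 and 5 after treatment. IC50 by nonlinear regression of luminescence versus log dose.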

Pancreatic HPAC = test: CellTiter Glo cell viability assay; assay type: cell-based, human; details: for pIC50: Homo sapiens, HPAC, 72 h, 3 Days of treatment, 18 2-fold dilutions 5-0.00003 μM
Outline: as §1

Kidney CRL-1611 = test: CellTiter Glo cell viability assay; assay type: cell-based; details: Homo sapiens, 72 h
Method: (§2) 1.7*10^3 cells/well were seeded in quadruplicates in 96-well plate after plating. Drugs were added at 5 μM and 2-fold dilutions over 18 concentrations (0.000038146-5 […] range) to generate a dose-response curve. Cell growth was assessed on day 1, 3 and 5 after drug treatments using the CellTiter Glo Luminescence Cell Viability Assay (Promega) according to manufacturer's protocol. Thermo Scientific Varioskan LUX Multimode Microplate instrument was used for plate reading. Data are expressed as mean luminescence (arbitrary units) ±S.D.
(§3) Cell Viability Assays were employed to determine the concentration of Compound 1 (KYN-001) and analogues where the response is reduced by half. For each treatment of cancer cells, 1, 2, 5, 10 and 20 μM solutions of compounds were applied. GraphPad Prism 7 software was used to fit dose response curves. Relative Luminescence Units were plotted against the log values of the doses used and the nonlinear regression model was used for data analysis.
(§4) The protocol for cell proliferation was optimized for Compound 8 (KYN-119) to enable a more accurate assessment of its low IC50 value. In this protocol, 18 dosages (2 fold dilutions ranging from 0.000038146 to 5 μM) were applied to cells seeded in 96-well plates, and Luminescence was measured after 1, 3 and 5 days upon treatments.

Rhabomyosarcoma SJCRH30 = test: CellTiter Glo cell viability assay; assay type: cell-based, human
Outline: as §1

Bladder HT_1376 = test: CellTiter Glo cell viability assay; assay type: cell-based; details: Homo sapiens, HT-1376, 72 h; 3 Days of treatment; 18 2-fold dilutions 5-0.00003 μM
Method: as §2, §3, §4

Liver JHH-5 = test: CellTiter Glo cell viability assay; assay type: cell-based; details: Homo sapiens, 72 h; 3 Days of treatment; 18 2-fold dilutions 5-0.00003 μM
Method: as §2, §3, §4

Pancreatic AsPC-1n = test: CellTiter Glo cell viability assay; assay type: cell-based; details: Homo sapiens, 72 h; 3 Days of treatment; 18 2-fold dilutions 5-0.00003 μM
Method: as §2, §3, §4

BalbC mice = test: Maximum Tolerable Dose - LD/50 single dose oral administration; assay type: in vivo; details: single oral dose 2000 mg/kg in SEDDS vehicle, 5 BalbC mice, observation 5 days
Method: To ascertain initial information regarding the toxicity and tolerability of compound 27.
• A single administration of orally formulated maximum dose, 2000 mg/kg was given to 5 BalbC mice. Observation was carried out for 5 days.
• Compound 27 was weighed out and diluted into the same SEDDS vehicle used for S1. The SEDDS vehicle is composed of the following components: • Labrasol (30%) • PEG-400 (20%) • Kolliphore RH-40 (30%) • Labrafil (20%) • The concentration of 27 in SEDDS was 200 mg/mL which would translate to a 2000 mg/kg oral dose for a 20 g mouse administered 200 ul. Oral administration was administered to 5 mice and the animals were carefully observed for signs of toxicity in the first hour then sporadically over 5 days.

[1] = system: melanoma B16F10 xenografted in BALB/c mice; test: B16F10 xenografted mice: tumor volume and histopathology; assay type: in vivo
Method: (§5) B16F10 cells (25×10^5 cells/mouse) were injected subcutaneously into the right flank of female BALB/c mice aged 7-8 weeks. Mice (n=10) were divided into 2 groups and given daily oral suspension of 27 (treated group), or vehicle (control group) for 15 days. The treated group was orally given a suspension of 27 at 900 mg/kg. The control group was given the vehicle suspension (SEDDS). Measurements performed on days 0, 9 and 15 only. Tissues (plasma, tumor, liver, spleen and brain) were harvested within 3 hours of final treatment. Biopsies of tumor tissues for histopathology were obtained subsequently.
Tissue samples from the tumors of both treated and control mice were fixed with formalin. Histopathological examination of these tumor samples was performed by Lore Laboratory, CA, USA.

[2] = Concentration of compound 27 in tissues (LC/MS/MS) of B16F10 xenografted mice; assay type: in vivo
Method: (§6) • Observe and assess the effect of oral administration of 27 on animal wellbeing. • Quantify levels of 27 in tissues (plasma, tumor, liver, spleen and brain) to assess the compound bioaccumulation and distribution.
as §5
Concentrations of 27 in different tissues were determined using LC/MS/MS spectrometry.

BALB/c mice = test: Effect of oral administration on animal wellbeing in B16F10 xenografted mice; assay type: in vivo; details: 900 mg/kg oral daily for 15 days
Method: as §6, §5

[3] = 72 h, 3 Days of treatment, 18 2-fold dilutions 5-0.00003 μM, read-out: Average IC50
[4] = 72 h, Table 4: 3 Days of treatment, 18 2-fold dilutions 5-0.00003 μM, Average (1, 8) or single Exp A-D, read-out: IC50
[5] = 120 h, Day 5 upon drug treatment, 10 dosages 0.0001-20 μM (Compound 8: 18 dosages 0.000038146 to 5 μM), read-out: IC50
[6] = IC50 of 1 [KYN-001] vs 8 [KYN-119], 3 Days
[7] = 900 mg/kg oral daily, individual treated mice
[8] = individual treated mice, 900 mg/kg oral daily for 15 days in SEDDS, harvested within 3 hours of final treatment, LC/MS/MS, 900 mg/kg

- pIC50 (Kidney ACHN; [3]): 6.31
- pIC50 (Kidney ACHN; [4]): 6.30
- pIC50 (Kidney ACHN; [5]): 7.05
Structure (SMILES): COc1cc(/C=C/c2cc(O)cc(OC)c2CC=C(C)C)ccc1O [Compound 1, (E)-3-(4-hydroxy-3-methoxystyryl)-5-methoxy-4-(3-methylbut-2-en-1-yl)phenol]
- pIC50 (Pancreatic HPAC): 5.30
- pIC50 (Kidney CRL-1611; 3 Days of treatment, 18 2-fold dilutions 5-0.00003 μM, read-out: Average IC50): 7.03
- pIC50 (Kidney CRL-1611; Day 3 upon drug treatment, 10 dosages 0.0001-20 μM, read-out: IC50): 7.03

- pIC50 (Kidney ACHN; [3]): 7.98
- pIC50 (Kidney ACHN; [4]): 8.01
- pIC50 (Kidney ACHN; [5]): ~10.87
- Fold IC50 (Kidney ACHN; [6]): 48
- pIC50 (Rhabomyosarcoma SJCRH30; Homo sapiens, 72 h, 3 Days of treatment, 18 2-fold dilutions 5-0.00003 μM): 7.36
- Fold IC50 (Rhabomyosarcoma SJCRH30; [6]): 1.9
- pIC50 (Pancreatic AsPC-1n): 5.70
Structure (SMILES): CCOc1cc(O)cc(/C=C/c2ccc(O)c(OC)c2)c1CC=C(C)C [Compound 8, (E)-3-Ethoxy-5-(4-hydroxy-3-methoxystyryl)-4-(3-methylbut-2-en-1-yl)phenol]
- pIC50 (Pancreatic HPAC): 5.71
- Fold IC50 (Pancreatic HPAC; [6]): 2.5
- pIC50 (Bladder HT_1376): 6.21
- pIC50 (Liver JHH-5): 5.36

Structure (SMILES): COc1cc(/C=C/c2cc(O)cc(OC)c2CC=C(C)C)ccc1NC=O [Compound 27, (E)-N-(4-(5-hydroxy-3-methoxy-2-(3-methylbut-2-en-1-yl)styryl)-2-methoxyphenyl)formamide]
- Toxicity and tolerability, survival and signs of distress (BalbC mice): All five mice survived and showed no immediate signs of distress; also recorded: high degree of oral tolerability
- Histochemical analysis of tumor samples, in words ([1]; 900 mg/kg oral daily for 15 days): tumors were subsequently diminished after day 10; also recorded: lysed and/or underwent necrosis
- Tumor volume Day 0 [1, 7]: 109.29 mm^3 and 52.18 mm^3 and 58.45 mm^3 and 82.97 mm^3 and 66.82 mm^3
- Tumor volume Day 9 [1, 7]: 132.59 mm^3 and 178.68 mm^3 and 37.38 mm^3 and 60.93 mm^3 and 47.3 mm^3
- Tumor volume Day 15 [1, 7]: 5.31 mm^3 and 19.93 mm^3 and 35.03 mm^3 and 42.35 mm^3 and 39.44 mm^3
- Tissue distribution, in words ([2]; 900 mg/kg oral daily for 15 days, tissues harvested within 3 hours of final treatment): Low plasma level; also recorded: high tendency to accumulate in the brain
- Concentration of compound 27 in tissues: Liver [2, 8]: 12.6 μg/mg and 10.2 μg/mg and 1.0 μg/mg and 0.0 μg/mg (2×)
- Concentration of compound 27 in tissues: Plasma [2, 8]: 0.0 ng/mL (3×) and 8.4 ng/mL and 0.4 ng/mL
- Concentration of compound 27 in tissues: Spleen [2, 8]: 2 μg/mg and 0 μg/mg (4×)
- Concentration of compound 27 in tissues: Tumor [2, 8]: 0 μg/mg (3×) and 11.6 μg/mg
- Signs of toxic effect (BALB/c mice): no signs of toxic effect; also recorded: low toxicity when given orally
